# Results as given in US6352996B1, “Liposomal prodrugs comprising derivatives of camptothecin and methods of treating cancer using these prodrugs” (priority 1999, dated 2002).
# Read-outs that look alike come from different tables or passages of the source.
# Experiments:
# [1] = Closed lactone form in plasma of mice after intrastomach administration; format: in vivo; conditions: mice, plasma after intrastomach administration (FIG. 1)
# [2] = cited from earlier work
# U-937 cells = test: Growth inhibition of U-937 cells treated with CPT esters; format: cell-based; conditions: 0.2 μM, 120 hr, percent of exponential growth of untreated cells (100%), mean of four estimates
# Description: Growth inhibition of U-937 cells treated with various CPT esters.
# Each identified compound was added to reach a culture of U-937 cell having a final concentration of 0.2 μM. The treatment time was for 120 hr. Growth inhibition in each of the treated cultures was then estimated as a percent of the exponential growth of the cells that was considered 100%. Each estimate was the mean value of four estimates.
# [3] = Stability of lactone form in human plasma; format: in vitro ADME; conditions: for Percent in plasma (lactone, percent of the initial lactone amount added): 1 μg/ml
# Description: CPT or SF6A lactone was added to human plasma (1 μg/ml) and an incubation and lactone determination were made as described in Example 15. The lactone amount at each time-point was detected after removing the carboxylate form, and subsequently was calculated as percent of the initial lactone amount added. The results shown in this Table below were derived from one of the three independent experiments performed using different incubation times. The pattern of quantitation of the lactones was similar in all three experiments.
# [4] = Closed lactone form in human plasma after oral administration; conditions: for % present as closed lactone form in human blood/plasma: after oral administration (FIGS. 2, 4, 5, 7, 8)
# SW48 colon carcinoma = conditions: interstomach 10 or 20 mg/kg in cottonseed oil, 5 days on/2 days off, fast and non-fast, day 13-34 (FIG. 9)
# Text: (§1) Swiss nude mice of the NIH high fertility strain were bred and maintained pathogen-free in a laboratory. (Giovanella, B. C. and Stehlin, J. S. “Heterotransplantation of human malignant tumors in ‘nude’ thymusless mice. I. Breeding and maintenance of ‘nude’ mice.” J. Natl. Cancer Inst. 51: 615-619; 1973.)
# (§2) Human malignant carcinomas of the colon, breast, lung, ovary, stomach, pancreas, bladder, prostate, osteosarcoma and malignant melanomas were heterotransplanted directly from patients into the nude mice and passaged serially. In particular, the tumors CLO, MUR, CAS, SW 48, SQU and BRO as described in Giovanella, B. C., Stehlin, J. S., Shepard, R. C. and Williams, L. J. “Correlation between response to chemotherapy of human tumors in patients and in nude mice.” Cancer 52: 1146-1152; 1983, tumor SCH as described in Heim, S., Mandahl, N., Arheden, K., Giovanella, B. C., Yim, S. O., Stehlin, J. S., Jr. and Mitebman, F. “Multiple karyotypic abnormalities including structural rearrangements of 11P in cell lines from malignant melanomas.” Cancer Genet. Cytogent, 35:5-20; 1988, and Verschraegen, C., Ciovanella, B. C., Mendoza, J. T., Kozielski, A. J. and Stehlin, J. S., Jr. “Specific organ metastases of human melanoma cells injected into the arterial circulation of nude mice.” Anticancer Res., In Press, and tumor PC-3 as described in Invest. Urol. 17, 16-23, 1979, were used. […]
# SQU colon carcinoma = conditions: 10 mg/kg intrastomach or intramuscular, until day 111 (FIG. 15)
# Text: as §1, §2
# 2774 ovarian carcinoma = conditions: for tumor size: day 41 (FIG. 13)
# Description: (§3) One group of six nude mice where treated interstomach with 10 or 20 mg,/kg body weight Compound IA in cottonseed oil per day for five consecutive days with two day intervals of no treatment (i.e., five days of treatment then two days no treatment, and five day treatment and so on). Another group of six nude mice were treated with 10 or 20 mg/kg body weight Compound IA in the same manner. There were also two control groups of six nude mice each. The designation of “fast” means no food was fed to the mice for at least 12 hours before treatment and the designation of “non-fast” means fed normally. Thus, in this experiment, there were 4 groups of mice with 6 mice in each group.
# The route of administration and the dosage regimen were the same as in FIG. 9 except there were only 5 mice in each group and only one control group was used.
# BRE stomach carcinoma = conditions: 10 and 20 mg/kg intrastomach, until day 34 (FIG. 11)
# Description: Human malignant carcinomas of the colon, breast, lung, ovary, stomach, pancreas, bladder, prostate, osteosarcoma and malignant melanomas were heterotransplanted directly from patients into the nude mice and passaged serially. […] Tumors DOY and HAR (undifferentiated non-oat cell carcinomas of the lung), DIL (a poorly differentiated squamous cell carcinoma of the lung), SPA (a moderately differentiated adenocarcinoma of the lung), LAN (an undifferentiated carcinoma of the ovary), and BRE (a moderately differentiated adenocarcinoma of the stomach) where heterotransplanted. For the experiments, the tumor tissue was finely minced in complete MEM medium and 0.5 ml of a 10% v/v suspension was inoculated subcutaneously on the upper back of groups of 10-30 mice. When the tumors became palpable and measurable in all the animals, they were divided into groups of 4-8 and treated with the desired dose of the drug in experiment or with the vehicle only for the controls,
# The dosage regimen and manner of administration are the same as in FIG. 9 except there were 5 mice per group and only one control group.
# human tumor xenografts = conditions: nude mice
# BRO melanoma = conditions: 20 mg/kg intrastomach, 20 days (FIG. 10)
# Text: as §2
# DOY lung carcinoma = conditions: 10 and 20 mg/kg intrastomach, day 34 (FIG. 12)
# Text: as §2
# McC colon carcinoma = conditions: 20 mg/kg intrastomach or intramuscular twice a week, day 11 to day 25 (FIG. 14)
# Description: as §3
smiles,measurement,setting,value
"CC[C@@]1(O)C(=O)OCc2c1cc1n(c2=O)Cc2cc3ccccc3nc2-1 [CPT, 20(S)-camptothecin]","closed lactone form, share of the area under the curve",[1],approximately 54%
same,solubility in water,[2],insoluble in water
same,Growth %,U-937 cells,0.0%
same,Lactone % in Human Plasma,[3]; Time 0 Hr,100%
same,Lactone % in Human Plasma,[3]; Time 1 Hr,12%
same,Lactone % in Human Plasma,[3]; Time 2 Hr,0.5%
same,Lactone % in Human Plasma,[3]; Time 4 Hr,0%
same,Lactone % in Human Plasma,[3]; Time 6 Hr,0%
same,metabolite detected,[3]; human plasma,the only metabolite detected is the ring-opened sodium carboxylate salt
same,"Percent in plasma (lactone, percent of the initial lactone amount added)","[3]; human plasma, incubation time 0.0 hr",100.0%
same,"Percent in plasma (lactone, percent of the initial lactone amount added)","[3]; human plasma, incubation time 0.5 hr",40.0%
same,"Percent in plasma (lactone, percent of the initial lactone amount added)","[3]; human plasma, incubation time 1.0 hr",12.0%
same,"Percent in plasma (lactone, percent of the initial lactone amount added)","[3]; human plasma, incubation time 2.0 hr",0.5%
same,"Percent in plasma (lactone, percent of the initial lactone amount added)","[3]; human plasma, incubation time 4.0 hr",0.0%
same,"Percent in plasma (lactone, percent of the initial lactone amount added)","[3]; human plasma, incubation time 6.0 hr",0.0%
same,"Percent in plasma (lactone, percent of the initial lactone amount added)","[3]; human plasma, incubation time 27.0 hr",0.0%
same,half-life,"[3]; human, human plasma, read-out: half-life time of the drug with lactone intact",30 min
same,% present as closed lactone form in human blood/plasma,[4],0.4%
same,"closed ring lactone form, share of the area under the curve","[4]; humans, after oral administration (FIG. 2)",about 0.4%
"CCC(=O)O[C@]1(CC)C(=O)OCc2c1cc1n(c2=O)Cc2cc3c([N+](=O)[O-])cccc3nc2-1 [Prodrug 11, 9-Nitrocamptothecin-20-O-propionate]",tumor size,SW48 colon carcinoma,decline in the tumor size
same,tumor size,SQU colon carcinoma,essentially stabilized
same,survival,"2774 ovarian carcinoma; 5 mice per group, day 41",all mice survived the experiment in each group
same,tumor size,2774 ovarian carcinoma; higher dosage (10 and 20 mg/kg tested) intrastomach,quite effective in reducing the tumor size
same,tumor size,2774 ovarian carcinoma; lesser dosage (10 and 20 mg/kg tested) intrastomach,steady increase in tumor size
same,% present as closed lactone form in human blood/plasma,[4],68.7%
same,increase of lactone share over the parent compound,"[4]; human, oral administration, versus CPT or 9NC",more than twentyfold
same,tumor size,BRE stomach carcinoma,prevention of the growth in the tumor size
same,antitumor activity against xenografts of human tumors,human tumor xenografts,"even higher than the camptothecin analogue, Prodrug 2"
same,tumor size,BRO melanoma,decreased in size
same,tumor size,DOY lung carcinoma,dramatic reduction
same,tumor size,McC colon carcinoma,increased slightly but then stabilized
